Where “and” joins values, the source holds several entries; their conditions need not be identical. Equal entries are not always repeated. Entries after “also recorded” stand apart in the source; their conditions may differ. Where two headings read alike, the source gives them in different places.
Legend:
[1] = Striatal tissue DA content of treated rats (HPLC); format: in vivo, rat; conditions: rats
Experimental: On the day of the assay, frozen tissue samples were thawed, sonicated for 3-5 s in tissue buffer (0.05 M sodium phosphate/0.03 M citric acid buffer with 15% methanol (v/v); pH 2.78), and centrifuged for 15 min at 22,000×g. Tissue pellets were retained and protein determined according to the method of Lowry et al. (1951). The supernatant was centrifuged a second time for 15 min at 22,000×g. 20 μl of supernatant were injected onto a high performance liquid chromatograph system coupled to an electrochemical detector (+0.73 V) for separation and quantitation of dopamine levels using the method of Chapin et al. (1986).

VMAT-2 [2] = assay: VMAT-2 immunoreactivity in striatal subcellular fractions (P2, P3, S3) of treated rats (Western blot); format: in vivo, rat; conditions: 1 h
Experimental: Striatal synaptosomes were prepared from rats decapitated 1 h after treatment as previously described (Fleckenstein et al., 1997). Briefly, striatal tissue was homogenized in cold 0.32 M sucrose and centrifuged (800×g for 12 min; 4° C.). The supernatant (S1) was then centrifuged (22,000×g for 15 min; 4° C.) and the resulting pellet (P2, synaptosomal fraction) was resuspended at 50 mg original wet weight/ml in cold water and a portion saved for western blot analysis. The remainder of the synaptosomal sample was centrifuged for 20 min at 22,000×g (4° C.) to pellet lysed synaptosomal membranes (P3, synaptosomal membrane fraction), which were then resuspended at 50 mg original wet weight/ml and saved for western blot analysis. Prior to resuspension of the plasmalemmal membrane fraction the supernatant (S3, vesicle-enriched fraction) was removed and saved for western blot analysis.
Binding of VMAT-2 antibody was performed using 60 μl aliquots of synaptosomal (P2), synaptosomal membrane (P3), or vesicle-enriched (S3) preparations. Each aliquot was added to 20 μl of loading buffer (final concentration: 2.25% sodium dodecyl sulfate, 18% glycerol, 180 mM Tris base (pH 6.8), 10% β-mercapto-ethanol and bromophenol blue), boiled for 10 min, and loaded on a 10% sodium dodecyl sulfate-polyacrylamide gel. Following electrophoresis, samples were transferred to polyvinlylidene difluoride membrane, blocked with 5% nonfat dry milk in Tris-buffered saline with tween (250 mM NaCl, 50 mM Tris pH 7.4 and 0.05% Tween 20), and probed with the VMAT-2 antibody (provided by J.W.H.). Bound antibody was visualized with HRP-conjugated goat anti-rabbit antibody, and antigen-antibody complexes were visualized by chemiluminescence. Multiple exposures of blots were obtained to ensure development within the linear range of the film. Bands on blots were quantified by densitometry using Kodak 1D image-analysis software.
Fresh striatal tissue was homogenized in ice-cold 0.32 M sucrose and centrifuged (800×g for 12 min; 4° C.). […] Resuspended tissue was aliquoted into two test tubes. One aliquot was centrifuged (22,000×g for 10 min; 4° C.) to separate plasmalemmal membranes from the synaptic vesicle-enriched fraction. The resulting supernatant (S3) contained the vesicular subcellular fraction of interest, and the pellets (P3; plasmalemmal membrane fraction) were resuspended in cold distilled deionized water.
VMAT-2 antibody was purchased from Chemicon (Temecula, Calif.; AB1767). Binding of VMAT-2 antibody was performed using 60 μl of whole synaptosomal, plasmalemmal membrane or vesicle subcellular fractions. Samples were added to 20 μl of loading buffer (final concentration: 2.25% SDS, 18% glycerol, 180 mM Tris Base (pH 6.8), 10% […] and bromophenol blue). Approximately 60 μg protein of the whole synaptosomal fraction, 40 μg protein of the plasmalemmal membrane fraction or 20 μg protein of the vesicle subcellular fraction was loaded per well in a 10% SDS-polyacrylamide gel. Following electrophoresis, samples were transferred to polyvinylidene difluoride hybridization transfer membrane (New England Nuclear (NEN), Boston, Mass.). All subsequent incubation steps were performed at room temperature while shaking. Each membrane was first blocked for 2 h in 100 ml of tris buffer saline with tween (TBST; 250 mM NaCl, 50 mM tris pH 7.4 and 0.05% tween 20) containing 5% nonfat dry milk. Each membrane was then incubated with anti-VMAT-2 antibody (1:4000 dilution) in 13 ml of TBST with 5% milk for 1 h and then washed 5 times (2×1 min wash; 3×5 min wash) in 70 ml TBST with 5% milk.

[3] = Vesicular DA content in purified striatal vesicles of treated rats; format: in vivo, rat
Experimental: Purified striatal vesicles were prepared as described above. The resulting vesicular pellet was sonicated for approximately 5 sec in cold tissue buffer (0.05 M sodium phosphate/0.03 M citric acid buffer with 15% methanol (v/v); pH 2.5) at a concentration of 100 mg/ml (original wet weight of tissue), and centrifuged for 15 min at 22,000×g. Tissue pellets were retained and protein was determined according to the method of Lowry et al. (1951). 40 μl of supernatant was injected onto a high performance liquid chromatograph system coupled to an electrochemical detector (+0.73 V) for separation and quantitation of DA levels using the method of Chapin et al. (1986).

VMAT-2 [4] = target: T1, VMAT-2 (Rattus norvegicus, UniProt Q01827); assay: [3H]DHTBZ binding in purified striatal vesicles prepared from treated rats
Experimental: Synaptic vesicles were obtained from synaptosomes prepared from rat striatum as described above. Synaptosomes were resuspended and homogenized in cold distilled deionized water. Osmolarity was restored by addition of HEPES and potassium tartrate 245 and 100 mM (final concentrations; pH 7.5), respectively. Samples were centrifuged for 20 min at 20,000×g (4° C.) to remove lysed synaptosomal membranes. MgSO4 (1 mM, final concentration) was added to the supernatant, which was then centrifuged for 45 min at 100,000×g (4° C.). The resulting vesicular pellet was resuspended in wash buffer at a concentration of 50 mg/ml (original tissue weight). […] Binding of [^3H]DHTBZ was performed as described by Teng et al. (1998). Briefly, 200 μl of the synaptic vesicle preparation (˜6 μg of protein) was incubated in wash buffer in the presence of [^3H]DHTBZ (2 nM final concentration) for 10 min at 25° C. The reaction was terminated by addition of 1 ml of cold wash buffer and rapid filtration through Whatman GF/F filters soaked in 0.5% polyethylenimine. Filters were washed three times with ice-cold wash buffer. Nonspecific binding was determined by coincubation with 20 μM tetrabenazine. All protein concentrations were determined by a BioRad protein assay (Bio-Rad, Richmond, Calif.).
Binding of [^3H]DHTBZ was performed as described by Teng et al. (1998). Briefly, 200 μl (˜6 μg protein) of the synaptic vesicle preparation was incubated in wash buffer in the presence of [^3H]DHTBZ (2 nM final concentration except in kinetic analyses wherein 0.25-500 nM DHTBZ was employed) for 10 m in at 25° C. The reaction was terminated by addition of 1 ml cold wash buffer and rapid filtration through Whatman GF/F filters soaked in 0.5% polyethylenimine. Filters were washed three times with ice-cold wash buffer. Radioactivity trapped in filters was counted using a liquid scintillation counter. Nonspecific binding was determined by coincubation with 20 μM TBZ. All protein concentrations were determined by a Bio-Rad protein assay (Bio-Rad Inc.).
Binding of[^3H]DHTBZ was performed as described by Teng et al. (1998). Briefly, 200 μl (˜5 μg protein) of the synaptic vesicle preparation was incubated in wash buffer in the presence of [^3H]DHTBZ (2 nM final concentration except in kinetic analyses wherein 0.25-500 nM DHTBZ was employed) for 10 m in at 25° C. The reaction was terminated by addition of 1 ml cold wash buffer and rapid filtration through Whatman GF/F filters soaked in 0.5% polyethylenimine. Filters were washed three times with ice-cold wash buffer. Radioactivity trapped in filters was counted using a liquid scintillation counter. Nonspecific binding was determined by coincubation with 20 μM TBZ. All protein concentrations were determined by a Bio-Rad protein assay (Bio-Rad Inc.).

VMAT-2 [5] = target: T1, VMAT-2; format: in vivo; design: purified striatal vesicles prepared from treated rats; from tissue; host or cells: striatum of male Sprague-Dawley rats (synaptic vesicles; P2, P3, S3 fractions); conditions: for Km: read-out: Km of vesicular [3H]DA uptake
Experimental: Osmolarity was restored by addition of N-(2-hydroxyethyl)-piperazine-N′-2-ethanesulfonic acid (HEPES) and potassium tartrate 25 mM and 100 mM (final concentrations; pH 7.5 at 4° C.), respectively.

[6] = METH 4 x 7.5 mg/kg s.c., 2-h intervals
[7] = methamphetamine 4 x 10 mg/kg s.c.
[8] = rats, METH 4 x 7.5 mg/kg s.c., 2-h intervals
[9] = rats, single 15 mg/kg METH injection s.c., 1 h
[10] = rats, MPD 5 mg/kg s.c. injections
[11] = MPD-treated rats, 40 mg/kg s.c., 1 h

T1 sequence (Q01827 whole entry): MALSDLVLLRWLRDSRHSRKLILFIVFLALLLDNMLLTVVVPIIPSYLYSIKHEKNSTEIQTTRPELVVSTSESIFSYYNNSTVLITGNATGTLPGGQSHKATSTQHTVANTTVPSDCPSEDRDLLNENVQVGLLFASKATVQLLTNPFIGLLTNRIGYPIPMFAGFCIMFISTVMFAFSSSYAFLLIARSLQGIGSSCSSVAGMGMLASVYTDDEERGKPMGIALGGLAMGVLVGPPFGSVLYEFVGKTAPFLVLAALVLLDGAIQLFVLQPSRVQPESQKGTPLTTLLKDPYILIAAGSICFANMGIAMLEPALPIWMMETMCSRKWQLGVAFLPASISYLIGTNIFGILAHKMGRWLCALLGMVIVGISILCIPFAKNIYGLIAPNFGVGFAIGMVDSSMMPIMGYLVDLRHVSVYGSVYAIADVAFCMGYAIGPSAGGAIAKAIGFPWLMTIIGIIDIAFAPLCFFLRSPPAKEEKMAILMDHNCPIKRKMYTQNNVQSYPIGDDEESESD

CN[C@@H](C)Cc1ccccc1 (racemic) [METH, methamphetamine]
striatal DA levels 7 d after treatment ([1]; METH 4 x 7.5 mg/kg s.c., 2-h intervals, vs saline/saline): decreased
decrease in whole tissue DA content ([1]; multiple METH, 6 h after drug treatment): 60%
VMAT-2 immunoreactivity in the plasmalemmal membrane fraction (P3) (VMAT-2 [2]; [6]): no change
VMAT-2 immunoreactivity in the vesicular subcellular fraction (S3) (VMAT-2 [2]; [6]): rapidly decreased
VMAT-2 immunoreactivity in the whole synaptosomal fraction (P2) (VMAT-2 [2]; [6]): Slight decreases; also recorded: no change
decrease in VMAT-2 immunoreactivity in the P2 fraction (VMAT-2 [2]; methamphetamine 4 x 10 mg/kg s.c., 2-h intervals): 25%
decrease in VMAT-2 immunoreactivity in the P2 fraction (VMAT-2 [2]; methamphetamine 4 x 10 mg/kg s.c., 2-h intervals, listed as methamphetamine): 40%
VMAT-2 immunoreactivity in the P3 fractions (VMAT-2 [2]; [7]): no difference
decrease in VMAT-2 immunoreactivity in the S3 fraction (VMAT-2 [2]; [7]): 80%
vesicular DA levels ([3]; METH-treated rats, 4 x 7.5 mg/kg s.c., 1 h after treatment, n=6): 2.30±2.5 pg/μg protein
decrease in vesicular DA levels ([3]; rats, METH 4 x 7.5 mg/kg s.c., 2-h intervals, 1 h after treatment): 49%
decrease in vesicular DA content ([3]; rats, multiple METH, 6 h after drug treatment): 60%
DHTBZ binding 1 h after the last METH injection (VMAT-2 [4]; [8]): rapidly decreased
persistence of the decreases in vesicular DA uptake and DHTBZ binding after treatment (VMAT-2 [5]; rats, METH 4 x 7.5 mg/kg s.c.): at least 6 h
vesicular DA uptake 1 h after the last METH injection (VMAT-2 [5]; [8]): rapidly decreased
Vmax of vesicular [3H]DA uptake (VMAT-2 [5]; [9]): 607 fmol/μg protein/min
Km (VMAT-2 [5]; [9]): 0.187 µM
decrease in vesicular [3H]DA uptake (VMAT-2 [5]; rats, single METH 15 mg/kg s.c., 1 h): 25% and 23%
deficit in vesicular [3H]DA uptake 24 h after treatment (VMAT-2 [5]; rats, single METH 15 mg/kg s.c., 24 h): recovered

COC(=O)C(c1ccccc1)C1CCCCN1 (stereo not drawn) [MPD, methylphenidate]
total tissue DA concentrations ([1]; 3 injections of MPD 5 mg/kg s.c., 1 h after the last MPD injection): without altering
total DA levels 7 d after MPD per se ([1]; MPD 5 mg/kg s.c.): did not alter
effect of post-treatment with a single MPD injection on the 7-d striatal DA depletions caused by METH ([1]; MPD 5 mg/kg s.c. 1 h after the last METH (4 x 7.5 mg/kg s.c.)): partially reversed
effect of two or three MPD injections on the persistent METH-induced striatal DA depletions ([1]; MPD 5 mg/kg s.c. at 1 and 3 h, or 1, 3 and 5 h after the last METH): completely prevented
VMAT-2 immunoreactivity in the plasmalemmal membrane fraction (VMAT-2 [2]; MPD 40 mg/kg s.c. single): decreased
VMAT-2 immunoreactivity in the vesicular subcellular fraction (VMAT-2 [2]; MPD 40 mg/kg s.c. single): increases
VMAT-2 immunoreactivity in the whole synaptosomal fraction (VMAT-2 [2]; MPD 40 mg/kg s.c. single): no change
increase in vesicular DA levels ([3]; rats, 3 injections of MPD 5 mg/kg s.c. over a 5 h period, 1 h after the last MPD injection): ~140%
effect of MPD post-treatment on the METH-induced decrease in vesicular DA content ([3]; rats, 3 injections of MPD after multiple METH regimen, 6 h after METH treatment): reversed
transporter Bmax for [3H]DHTBZ (VMAT-2 [4]; MPD-treated rats): 28.87 fmol/μg protein
effect of MPD post-treatment on the METH-induced decrease in DHTBZ binding (VMAT-2 [4]; rats, 1, 2 or 3 injections of MPD 5 mg/kg s.c. during the initial 6-h period after METH): reversed
DHTBZ binding after MPD treatment per se (VMAT-2 [4]; [10]): increased
binding of the VMAT-2 ligand [3H]DHTBZ after a single MPD administration (VMAT-2 [4]; rats, MPD 5-40 mg/kg s.c., 1 h): increase
transporter Vmax of vesicular [3H]DA uptake (VMAT-2 [5]; [11]): 2350±250 fmol/μg protein/3 min
Km (VMAT-2 [5]; [11]): 0.23 ± 0.01 µM
effect of MPD post-treatment on the METH-induced decrease in vesicular DA uptake (VMAT-2 [5]; rat, in vivo): reversed
vesicular DA uptake after MPD treatment per se (VMAT-2 [5]; [10]): increased
vesicular [3H]DA uptake after a single MPD administration (VMAT-2 [5]; rats, MPD 5, 10, 20, or 40 mg/kg s.c., 1 h): increases
reversal of the increases in vesicular [3H]DA uptake and [3H]DHTBZ binding (VMAT-2 [5]; rats, after a 40 mg/kg MPD administration): ≤ 12 h
onset of the increases in vesicular [3H]DA uptake and [3H]DHTBZ binding (VMAT-2 [5]; rats, single MPD s.c.): ≤ 30 min
